Data: ChEMBL document CHEMBL5257045, “Antiparasitic Activity of Two Natural Terpenes from Salvia cuspidata against Leishmania amazonensis” (2023)
Values joined by “and” are separate entries in the source; they are usually repeats but may differ in a detail not shown here. Equal entries are not always repeated. Active and inactive are the calls of the source. No cut-off for these calls is given here.

Legend:
[1] = tested on: Leishmania amazonensis; test: Antileishmanial activity against Leishmania amazonensis MHOM/VE/84/MEL promastigotes assessed as parasite mortality at 29.2 uM measured after 2 day by dye exclusion method (reference value: 11.6 +/- 3.3); format: functional; details: 48 h
[2] = tested on: Leishmania amazonensis; test: Antileishmanial activity against Leishmania amazonensis promastigotes infected in BALB/c mouse assessed as reduction of parasite burden at 1 mg/kg per day administered once a week for 4 weeks measured at 10 week by limit dilution assay; format: functional, organism-based
[3] = tested on: Leishmania amazonensis; test: Antileishmanial activity against Leishmania amazonensis promastigotes infected in BALB/c mouse assessed as reduction of splenic index at 1 mg/kg per day administered once a week for 4 weeks measured at 10 week; format: functional, organism-based
[4] = tested on: Leishmania amazonensis; test: Antileishmanial activity against Leishmania amazonensis MHOM/VE/84/MEL promastigotes assessed as parasite mortality at 29.2 uM measured after 1 day by dye exclusion method (reference value: 14.5 +/- 3.5); format: functional; details: 24 h
[5] = tested on: Leishmania amazonensis; test: Antileishmanial activity against Leishmania amazonensis MHOM/VE/84/MEL promastigotes assessed as parasite mortality at 14.3 uM measured after 2 day by dye exclusion method (reference value: 11.6 +/- 3.3); format: functional; details: 48 h
[6] = tested on: Leishmania amazonensis; test: Induction of ROS generation in Leishmania amazonensis promastigotes at 4.3 to 29.2 uM incubated for 48 hrs followed by probe addition measured after 1 hr by H2DCFDA probe based fluorometry analysis; format: functional, organism-based; details: dose 4.3-29.2 µM, time 49.0 hrs
[7] = tested on: Leishmania amazonensis; test: Antileishmanial activity against Leishmania amazonensis MHOM/VE/84/MEL promastigotes assessed as parasite mortality at 14.3 uM measured after 1 day by dye exclusion method (reference value: 14.5 +/- 3.5); format: functional; details: 24 h
[8] = tested on: Leishmania amazonensis; test: Antileishmanial activity against Leishmania amazonensis promastigotes infected in BALB/c mouse assessed as reduction of IgG level at 1 mg/kg per day administered once a week for 4 weeks measured at 10 week by ELISA assay; format: functional, organism-based
[9] = tested on: Leishmania amazonensis; test: Induction of ROS generation in Leishmania amazonensis promastigotes assessed as reduction in endogenous GSH level at 4.3 to 29.2 uM incubated for 3 hrs by absorbance based analysis; format: functional, organism-based; details: dose 4.3-29.2 µM
[10] = tested on: Leishmania amazonensis; test: Antileishmanial activity against Leishmania amazonensis MHOM/VE/84/MEL promastigotes assessed as parasite mortality at 4.3 uM measured after 1 day by dye exclusion method (reference value: 14.5 +/- 3.5); format: functional; details: 24 h
[11] = tested on: Leishmania amazonensis; test: Antileishmanial activity against Leishmania amazonensis MHOM/VE/84/MEL promastigotes assessed as parasite mortality at 4.3 uM measured after 2 day by dye exclusion method (reference value: 11.6 +/- 3.3); format: functional; details: 48 h
[12] = tested on: Leishmania amazonensis; test: Antileishmanial activity against Leishmania amazonensis promastigotes infected in BALB/c mouse assessed as reduction in RHLF lesion size at 1 mg/kg per day administered once a week for 4 weeks measured at 10 week; format: functional, organism-based
[13] = tested on: Leishmania amazonensis; test: Antileishmanial activity against Leishmania amazonensis promastigotes infected in BALB/c mouse assessed as reduction of IgG1 level at 1 mg/kg per day administered once a week for 4 weeks measured at 10 week by ELISA assay; format: functional, organism-based
[14] = tested on: Leishmania amazonensis; test: Induction of ROS generation in Leishmania amazonensis promastigotes assessed as reduction in mitochondrial activity at 4.3 to 29.2 uM incubated for 48 hrs by MTT assay; format: functional, organism-based; details: dose 4.3-29.2 µM
[15] = tested on: Leishmania donovani; test: Antileishmanial activity against Leishmania donovani MHOM/IN/83/AG83 promastigotes infected in BALB/c mouse assessed as reduction of parasite burden in spleen at 5 to 10 mg/kg per day; format: functional, organism-based; details: dose 5-10 mg/kg
[16] = tested on: Leishmania amazonensis; test: Antileishmanial activity against Leishmania amazonensis promastigotes infected in BALB/c mouse assessed as reduction in RHLF lesion size at 400 mg/kg per day, ip administered for 30 days; format: functional, organism-based; details: time 30.0 day
[17] = tested on: Leishmania amazonensis; test: Antileishmanial activity against Leishmania amazonensis promastigotes infected in BALB/c mouse assessed as reduction of IgG level at 400 mg/kg per day, ip administered for 30 days measured at 10 week by ELISA assay; format: functional, organism-based; details: time 30.0 day
[18] = tested on: Leishmania amazonensis; test: Antileishmanial activity against Leishmania amazonensis promastigotes infected in BALB/c mouse assessed as reduction of splenic index at 400 mg/kg per day, ip administered for 30 days measured at 10 week; format: functional, organism-based; details: time 30.0 day
[19] = tested on: Leishmania amazonensis; test: Antileishmanial activity against Leishmania amazonensis promastigotes infected in BALB/c mouse assessed as reduction of IgG1 level at 400 mg/kg per day, ip administered for 30 days measured at 10 week by ELISA assay; format: functional, organism-based; details: time 30.0 day
[20] = tested on: Leishmania amazonensis; test: Antileishmanial activity against Leishmania amazonensis promastigotes infected in BALB/c mouse assessed as reduction of parasite burden at 400 mg/kg per day, ip administered for 30 days measured at 10 week by limit dilution assay; format: functional, organism-based; details: time 30.0 day
[21] = tested on: Leishmania amazonensis; test: Antileishmanial activity against Leishmania amazonensis promastigotes infected in BALB/c mouse assessed as wound closure at 400 mg/kg per day, ip administered for 30 days; format: functional, organism-based; details: time 30.0 day
[22] = tested on: Leishmania amazonensis; test: Antileishmanial activity against Leishmania amazonensis MHOM/VE/84/MEL promastigotes assessed as parasite mortality at 38.4 uM measured after 1 day by dye exclusion method (reference value: 14.5 +/- 3.5); format: functional; details: 24 h
[23] = tested on: Leishmania amazonensis; test: Antileishmanial activity against Leishmania amazonensis MHOM/VE/84/MEL promastigotes assessed as parasite mortality at 38.4 uM measured after 2 day by dye exclusion method (reference value: 11.6 +/- 3.3); format: functional; details: 48 h

Molecule | mortality at 29.2 µM [1] | Activity [2] | Activity [3] | mortality at 29.2 µM [4] | mortality at 14.3 µM [5] | Activity [6] | mortality at 14.3 µM [7] | Activity [8] | Activity [9] | mortality [10] | mortality at 4.3 µM [11] | Activity [12] | Activity [13] | Activity [14] | other results
CC(C)C1=C(O)C(=O)C2=C(C=C[C@H]3[C@]4(CCC[C@]3(C)C(=O)O4)C2)C1=O | 77.5% | Active | Active | 65% | 51.5% | Active | 47% | Active | Active | 10% and 26.5% | 26.5% | Active | Active | Active | 
C[C@@H]1CC[C@H]2[C@@H](C)C(=O)O[C@@H]3O[C@@]4(C)CC[C@@H]1[C@]32OO4 |  |  |  |  |  |  |  |  |  |  |  |  |  |  | Activity [15]: Active
C[C@@]12CCC[C@]3(COC1=O)CC1=C(C=C[C@@H]32)C(=O)C=C(O)C1=O | 98.5% | Active | Active | 96.5% | 92% | Active | 55% | Active | Active | 33.5% and 87.5% | 87.5% | Active | Active | Active | 
MEGLUMINE ANTIMONATE |  |  |  |  |  |  |  |  |  |  |  |  |  |  | Activity [16]: Active; Activity [17]: Active; Activity [18]: Active; Activity [19]: Active; Activity [20]: Active; Activity [21]: inactive
CC(=O)N1CCN(c2ccc(OCC3COC(Cn4ccnc4)(c4ccc(Cl)cc4Cl)O3)cc2)CC1 (configuration not stated) [KETOCONAZOLE] |  |  |  |  |  |  |  |  |  |  |  |  |  |  | mortality at 38.4 µM [22]: 48.5%; mortality at 38.4 µM [23]: 79.4%
